Among the test systems are SK-OV-3 ovarian; NCI-H522 lung; UO-31 renal; NCI-H460 lung; MOLT-4 leukemia; HCC-2998 colon; SR leukemia; SK-MEL-5 melanoma; MDA-MB-231 breast; EKVX NSCLC.
What all share (test): growth of human tumour cells (NCI), 48 h

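Five compound concentrations were applied to cells in 96-well plates for 48 hours; endpoints were derived by simple linear interpolation of the resulting dose-response curve. GI50: concentration for 50% inhibition of growth. TGI: concentration producing complete growth inhibition.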

Turning to `COc1ccc(/C(=N/O)c2cc(F)c(F)c(OC)c2F)cc1O`, the GI50 in the assay on SK-OV-3 ovarian is 0.523 µM; in the assay with NCI-H522 lung it was 0.259 µM; in the assay with UO-31 renal it was 1.36 µM; in the assay on NCI-H460 lung, 0.402 µM; in the assay with MOLT-4 leukemia, 0.43 µM; in the assay with HCC-2998 colon, 2.01 µM. Also, the GI50 with SR leukemia was 0.241 µM; with SK-MEL-5 melanoma, 0.599 µM; with MDA-MB-231 breast it was 2.46 µM; in the assay on EKVX NSCLC, 0.714 µM. In addition, the TGI with SK-OV-3 ovarian was over 100 µM; in the assay with NCI-H522 lung, 3.3 µM; with UO-31 renal it was 90.9 µM; in the assay on NCI-H460 lung it was over 100 µM; with MOLT-4 leukemia, 30 µM; with HCC-2998 colon it was over 100 µM. Moreover, the TGI with SR leukemia was 34.1 µM; in the assay on SK-MEL-5 melanoma it was 17.3 µM; in the assay with MDA-MB-231 breast, over 100 µM; with EKVX NSCLC, over 100 µM.

For `COc1cc(/C=C/C(=O)c2cccc(-n3cc(-c4ccccc4)[nH]c3=O)c2)ccc1O`, the GI50 was 4.02 µM in the assay on SK-OV-3 ovarian; 1.78 µM with NCI-H522 lung; 2.01 µM in the assay on UO-31 renal; 3.01 µM in the assay on NCI-H460 lung; 2.49 µM in the assay with MOLT-4 leukemia; 1.92 µM in the assay with HCC-2998 colon. Also, the GI50 in the assay on SR leukemia was 1.65 µM; in the assay on SK-MEL-5 melanoma, 2.48 µM; with MDA-MB-231 breast, 3.36 µM; in the assay with EKVX NSCLC, 6.38 µM. Moreover, the TGI came to 35.5 µM in the assay with SK-OV-3 ovarian; 6.12 µM in the assay with NCI-H522 lung; 8.73 µM with UO-31 renal; 8.68 µM in the assay with NCI-H460 lung; 6.28 µM in the assay with MOLT-4 leukemia; 4.21 µM in the assay on HCC-2998 colon. In addition, the TGI was over 100 µM in the assay on SR leukemia, 6.65 µM in the assay with SK-MEL-5 melanoma, 15.2 µM in the assay on MDA-MB-231 breast and 36.3 µM in the assay with EKVX NSCLC.

Take `O=C1c2c[n+](Cc3ccccc3)ccc2-c2nc3ccccc3c3ccnc1c23`: the GI50 is 0.568 µM with SK-OV-3 ovarian; 0.518 µM in the assay on NCI-H522 lung; 0.756 µM in the assay on UO-31 renal; 0.0673 µM in the assay with NCI-H460 lung; 0.719 µM in the assay with MOLT-4 leukemia; 0.609 µM in the assay with HCC-2998 colon. For the same compound, the GI50 is 0.066 µM with SR leukemia, 0.439 µM in the assay on SK-MEL-5 melanoma, 0.711 µM with MDA-MB-231 breast and 1.28 µM in the assay with EKVX NSCLC. Moreover, the TGI with SK-OV-3 ovarian turned out to be 2.56 µM; in the assay with NCI-H522 lung, 1.65 µM; in the assay with UO-31 renal, 17 µM; with NCI-H460 lung it was 0.499 µM; with MOLT-4 leukemia, 1.89 µM; with HCC-2998 colon, 1.74 µM. Besides, the TGI in the assay on SR leukemia is 3.6 µM; with SK-MEL-5 melanoma, 1.04 µM; with MDA-MB-231 breast, 3.21 µM; with EKVX NSCLC, 4.79 µM.

With `CCN(CC)CCNc1ccc2nc(C)n3c4ccc(OC)cc4c(=O)c1c23`, the TGI in the assay on SK-OV-3 ovarian is 19.5 µM; with NCI-H522 lung, 2.74 µM; in the assay on UO-31 renal it was 16.3 µM; with NCI-H460 lung, 2.42 µM; with MOLT-4 leukemia, 1.15 µM; in the assay with HCC-2998 colon, 6.2 µM. Further, the TGI with SR leukemia stood at 0.56 µM; with SK-MEL-5 melanoma, 19.1 µM; in the assay with MDA-MB-231 breast, 16.9 µM; in the assay with EKVX NSCLC, 13.9 µM.

For the compound `COc1cccc2c1C(=O)c1c(O)c3c(c(O)c1C2=O)C[C@@](O)(C(=O)CO)C[C@@H]3OC1CC2C(OCN2CN2COC3C(C)OC(O[C@H]4C[C@](O)(C(=O)CO)Cc5c(O)c6c(c(O)c54)C(=O)c4c(OC)cccc4C6=O)CC32)C(C)O1` (some centres not stated), the GI50 in the assay with SK-OV-3 ovarian was 0.00699 µM; in the assay on NCI-H522 lung it was 0.00638 µM; with UO-31 renal, 0.00304 µM; in the assay with NCI-H460 lung, 0.000207 µM; in the assay on MOLT-4 leukemia, 0.000203 µM; in the assay on HCC-2998 colon, 0.0138 µM. The GI50 in the assay with SR leukemia was 0.000289 µM; in the assay with SK-MEL-5 melanoma it was 0.0143 µM; in the assay with MDA-MB-231 breast, 0.0156 µM; with EKVX NSCLC, 0.0393 µM. For the same compound, the TGI in the assay with SK-OV-3 ovarian is 0.0207 µM; in the assay with NCI-H522 lung, 0.0238 µM; with UO-31 renal it was 0.0283 µM; in the assay with NCI-H460 lung it was 0.0864 µM; in the assay with MOLT-4 leukemia, 0.00801 µM; in the assay with HCC-2998 colon, 0.0441 µM. The TGI in the assay with SR leukemia was 0.00476 µM; in the assay on SK-MEL-5 melanoma, 0.0492 µM; in the assay with MDA-MB-231 breast, 0.072 µM; in the assay with EKVX NSCLC it was over 1 µM.

In the case of `O=C1c2ccccc2-n2c1nc1ccc([N+](=O)[O-])cc1c2=O`, the TGI with SK-OV-3 ovarian, with NCI-H522 lung, in the assay with UO-31 renal, with NCI-H460 lung, in the assay on MOLT-4 leukemia and in the assay with HCC-2998 colon was over 100 µM each time. Also, the TGI with SR leukemia, with SK-MEL-5 melanoma, in the assay on MDA-MB-231 breast and in the assay on EKVX NSCLC was over 100 µM in each case.

On to `CC1=C(C(=O)Nc2cc(F)c(F)cc2F)C(c2ccc(N(C)C)cc2)C(C(=O)Nc2cc(F)c(F)cc2F)=C(C)N1`, for which the TGI was over 100 µM in the assay on SK-OV-3 ovarian; 51 µM in the assay with NCI-H522 lung; over 84.4 µM in the assay with UO-31 renal; over 100 µM in the assay with NCI-H460 lung; over 77.2 µM in the assay on MOLT-4 leukemia; over 83 µM in the assay with HCC-2998 colon. Also, the TGI is over 100 µM in the assay on SR leukemia, over 74.3 µM in the assay on SK-MEL-5 melanoma, over 100 µM in the assay with MDA-MB-231 breast and 75.6 µM in the assay on EKVX NSCLC. Also, the GI50 in the assay with SR leukemia was 18.7 µM; in the assay on MDA-MB-231 breast, 19 µM.

Take `Cc1ccc(S(=O)(=O)NC(=O)Nc2ncn[nH]2)cc1`: the TGI in the assay on SK-OV-3 ovarian, in the assay on NCI-H522 lung, in the assay on UO-31 renal, in the assay with NCI-H460 lung, with MOLT-4 leukemia and in the assay on HCC-2998 colon was over 100 µM each time. The TGI in the assay on SR leukemia, in the assay on SK-MEL-5 melanoma, in the assay with MDA-MB-231 breast and in the assay on EKVX NSCLC was over 100 µM throughout.

For `COC(=O)c1cc2c3cc(Cl)ccc3[nH]c2c2ncccc12`, the GI50 with SK-OV-3 ovarian, in the assay on NCI-H522 lung, in the assay on UO-31 renal, with NCI-H460 lung, with MOLT-4 leukemia and with HCC-2998 colon was over 100 µM in each case. The GI50 with SR leukemia, in the assay on SK-MEL-5 melanoma, in the assay on MDA-MB-231 breast and in the assay with EKVX NSCLC was over 100 µM each time. Moreover, the TGI in the assay with SK-OV-3 ovarian, in the assay with NCI-H522 lung, with UO-31 renal, with NCI-H460 lung, in the assay with MOLT-4 leukemia and in the assay with HCC-2998 colon was over 100 µM each time. Further, the TGI in the assay on SR leukemia, in the assay with SK-MEL-5 melanoma, in the assay with MDA-MB-231 breast and in the assay on EKVX NSCLC was over 100 µM throughout.
